# Laboratory results from PubChem BioAssay (NCI).
#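 Results reflect a 48-hour exposure of cells in 96-well plates to compound at five concentrations. GI50 is the concentration that inhibits growth by half. TGI marks complete inhibition of growth.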
# How the values were obtained:
# Experiment in all cases: growth of human tumour cells (NCI), 48 h
# SR leukemia = test system: SR leukemia
# TK-10 renal = test system: TK-10 renal
# HT29 colon = test system: HT29 colon
# KM12 colon = test system: KM12 colon
# BT-549 breast = test system: BT-549 breast
# HCT-116 colon = test system: HCT-116 colon
# HL-60(TB) leukemia = test system: HL-60(TB) leukemia
# SK-OV-3 ovarian = test system: SK-OV-3 ovarian
# COLO 205 colon = test system: COLO 205 colon
# SK-MEL-28 melanoma = test system: SK-MEL-28 melanoma
SMILES,GI50 (SR leukemia),TGI (SR leukemia),GI50 (TK-10 renal),TGI (TK-10 renal),GI50 (HT29 colon),TGI (HT29 colon),GI50 (KM12 colon),TGI (KM12 colon),GI50 (BT-549 breast),TGI (BT-549 breast),GI50 (HCT-116 colon),TGI (HCT-116 colon),GI50 (HL-60(TB) leukemia),TGI (HL-60(TB) leukemia),GI50 (SK-OV-3 ovarian),TGI (SK-OV-3 ovarian),GI50 (COLO 205 colon),TGI (COLO 205 colon),GI50 (SK-MEL-28 melanoma),TGI (SK-MEL-28 melanoma)
COc1ccc(/C=C/C(=O)c2ccc(OC)c(OC)c2)cc1O,0.393 µM,> 100 µM,11.4 µM,30.4 µM,5.91 µM,20.5 µM,3.57 µM,13.3 µM,5.5 µM,17.4 µM,3.35 µM,12.8 µM,13.9 µM,52.2 µM,6.51 µM,45 µM,12.5 µM,25 µM,12.9 µM,27.4 µM
CCN(CC)C1CCC(Nc2c(C(C)=O)cnc3ccc(-c4ccc(O)c(Cl)c4)cc23)CC1 (stereo not given),0.195 µM,0.72 µM,3.52 µM,> 100 µM,1.64 µM,3.51 µM,0.432 µM,4.28 µM,1.91 µM,5.89 µM,0.568 µM,4.59 µM,0.15 µM,1.51 µM,0.931 µM,> 44.5 µM,10.7 µM,40.7 µM,1.83 µM,16.2 µM
CC(=O)Nc1ccc(COC(O)CN2CCCCC2)cc1[N+](=O)[O-] (stereo not given),–,> 100 µM,–,> 100 µM,–,> 100 µM,–,> 100 µM,–,> 100 µM,–,> 100 µM,–,> 100 µM,–,–,–,> 100 µM,–,> 100 µM
O=S(=O)(/N=c1/scc(-c2ccccc2)n1-c1ccccc1)c1ccc(N2N=C3c4ccccc4CC3C2c2cccs2)cc1 (stereo not given),–,–,32.7 µM,75.3 µM,82 µM,> 100 µM,32.1 µM,> 100 µM,47.5 µM,> 100 µM,–,–,–,–,> 100 µM,> 100 µM,> 100 µM,> 100 µM,> 100 µM,> 100 µM
O=C1c2cccc(NCCN=Cc3ccccc3O)c2C(=O)c2c(NCCN=Cc3ccccc3O)cccc21,0.363 µM,–,1.71 µM,5.52 µM,0.298 µM,1.93 µM,0.353 µM,1.44 µM,2.77 µM,9.37 µM,0.387 µM,–,1.09 µM,3.4 µM,1.5 µM,4.99 µM,0.46 µM,2.18 µM,1.54 µM,3.37 µM
COc1cc([N+](=O)[O-])c(OC)cc1-c1nc2sc(Cl)cn2c1/C=N/NC1=NCCN1,0.228 µM,0.45 µM,1.89 µM,3.36 µM,0.269 µM,–,0.833 µM,2.49 µM,2.69 µM,5.95 µM,0.249 µM,0.616 µM,–,–,1.88 µM,3.48 µM,1.33 µM,3.7 µM,–,–
CCOc1cccc(-c2nc(N)nc(Nc3ccccc3SSc3ccccc3Nc3nc(N)nc(-c4cccc(OCC)c4)n3)n2)c1,–,–,6.26 µM,86.8 µM,55.8 µM,> 100 µM,3.53 µM,> 100 µM,4.97 µM,> 100 µM,3.95 µM,> 100 µM,2.14 µM,6.09 µM,4.87 µM,> 100 µM,35.8 µM,> 100 µM,10.7 µM,> 100 µM
CC(C)(C)c1c2c(c(C(C)(C)C)c3c1OCN(Cc1ccccc1)C3)OCN(Cc1ccccc1)C2,–,53.2 µM,–,32.5 µM,–,37.6 µM,–,57.8 µM,–,39.4 µM,–,24.4 µM,–,–,–,> 100 µM,–,26.6 µM,–,> 100 µM
Cn1c(NCC(O)CN2CCCC2)cc(=O)n(C)c1=O (stereo not given),> 100 µM,> 100 µM,> 100 µM,> 100 µM,> 100 µM,> 100 µM,> 100 µM,> 100 µM,> 100 µM,> 100 µM,> 100 µM,> 100 µM,–,–,> 100 µM,> 100 µM,> 100 µM,> 100 µM,> 100 µM,> 100 µM
CC(=O)c1cc(C(=O)c2ccc3c(c2)Sc2ccccc2N3)c2cc(C)ccn12,0.0386 µM,> 100 µM,> 100 µM,> 100 µM,0.0627 µM,> 100 µM,0.0425 µM,> 100 µM,0.251 µM,> 100 µM,0.0414 µM,> 100 µM,–,–,0.189 µM,> 100 µM,0.0598 µM,0.346 µM,6.79 µM,> 100 µM
CC1(C)[C@@H](OC(=O)CCC(=O)O)CC[C@]2(C)[C@H]3C(=O)C=C4[C@@H]5C[C@@](C)(C(=O)O)CC[C@]5(C)CC[C@@]4(C)[C@]3(C)CC[C@@H]12,–,–,65.6 µM,124 µM,56.1 µM,130 µM,54.9 µM,84.1 µM,51.1 µM,83.3 µM,51.8 µM,75.6 µM,54.6 µM,73.6 µM,59.4 µM,127 µM,–,–,57.5 µM,85.4 µM
Cc1cc(C)nc(NS(=O)(=O)c2ccc(Nc3c4ccc(Cl)cc4nc4c(C(=O)NCCN(C)C)cccc34)cc2)n1,–,> 100 µM,–,> 100 µM,–,> 100 µM,–,> 100 µM,–,–,–,> 100 µM,–,> 100 µM,–,> 100 µM,–,> 100 µM,–,> 100 µM
COc1cc(/C=C/C(=O)N2CCN(C(=O)c3cc(OC)c(OC)c(OC)c3)CC2)ccc1OCCCOc1cc2c(cc1OC)C(=O)N1CCC[C@H]1C=N2,–,–,0.45 µM,4.37 µM,0.34 µM,12.8 µM,0.25 µM,0.699 µM,0.154 µM,0.434 µM,–,–,0.214 µM,–,0.551 µM,> 71.3 µM,0.19 µM,0.476 µM,0.212 µM,0.417 µM
O=C(Nc1ccccc1)c1cc(S(=O)(=O)Nc2nc3ccccc3o2)c(SCc2ccccc2)cc1Cl,–,–,13.9 µM,28.2 µM,43 µM,> 100 µM,16.7 µM,32.6 µM,19 µM,40.6 µM,25.1 µM,66.1 µM,–,–,22.3 µM,58.7 µM,36.7 µM,> 100 µM,22.7 µM,51.9 µM
